Assays:
NEK1 = NEK1 (Homo sapiens (Human), UniProt Q96PY6); assay: SelectScreen Kinase Profiling: NEK1; assay type: biochemical; details: 300-350 nM
Text: (§1) Table 2 below highlights the selectivity of a representative compound of the invention against a panel of 50 kinases (assessed using the Invitrogen SelectScreen® Kinase Profiling Service).

KDR (VEGFR2) = KDR (VEGFR2) (Homo sapiens (Human), UniProt P35968); assay: SelectScreen Kinase Profiling: KDR; assay type: biochemical; details: 300-350 nM
Text: as §1

EPHA2 = EPHA2 (Homo sapiens (Human), UniProt P29317); assay: SelectScreen Kinase Profiling: EPHA2; assay type: biochemical; details: 300-350 nM
Text: as §1

MAPK14 (p38 alpha) = MAPK14 (p38 alpha) (Homo sapiens (Human), UniProt Q16539); assay: SelectScreen Kinase Profiling: MAPK14; assay type: biochemical; details: 300-350 nM
Text: as §1

ROCK1 = ROCK1 (Homo sapiens (Human), UniProt Q13464); assay: SelectScreen Kinase Profiling: ROCK1; assay type: biochemical; details: 300-350 nM
Text: as §1

SYK = SYK (Homo sapiens (Human), UniProt P43405); assay: SelectScreen Kinase Profiling: SYK; assay type: biochemical; details: 300-350 nM
Text: as §1

GSK3B (GSK3 beta) = GSK3B (GSK3 beta) (Homo sapiens (Human), UniProt P49841); assay: SelectScreen Kinase Profiling: GSK3B; assay type: biochemical; details: 300-350 nM
Text: as §1

CDK1/cyclin B = CDK1/cyclin B (Homo sapiens (Human), UniProt P06493); assay: SelectScreen Kinase Profiling: CDK1/cyclin B; assay type: biochemical; details: 300-350 nM
Text: as §1

PRKCB1 (PKC beta I) = PRKCB1 (PKC beta I) (Homo sapiens (Human), UniProt P05771); assay: SelectScreen Kinase Profiling: PRKCB1; assay type: biochemical; details: 300-350 nM
Text: as §1

Wee-1 kinase = Wee-1 kinase (Homo sapiens (Human), UniProt P30291); assay: Measurement of Wee-1 kinase activity (ADP-Glo); assay type: biochemical; details: read-out: Wee-1 IC50 activity
PAK4 = PAK4 (Homo sapiens (Human), UniProt O96013); assay: SelectScreen Kinase Profiling: PAK4; assay type: biochemical; details: 300-350 nM
Text: as §1

JAK3 = JAK3 (Homo sapiens (Human), UniProt P52333); assay: SelectScreen Kinase Profiling: JAK3; assay type: biochemical; details: 300-350 nM
Text: as §1

FGFR1 = FGFR1 (Homo sapiens (Human), UniProt P11362); assay: SelectScreen Kinase Profiling: FGFR1; assay type: biochemical; details: 300-350 nM
Text: as §1

[1] = system: phospho-cdc2 (Tyr15) in HT-29 cells; assay: Effect on phosphorylation of cdc2 at Tyr15 in HT-29 cells (PathScan ELISA); assay type: cell-based; details: Homo sapiens, HT-29, 8 h; HT29 cells, eight hours incubation; read-out: HT29 pCDC2 activity

GSK3B (GSK3 beta), sequence (P49841 whole entry): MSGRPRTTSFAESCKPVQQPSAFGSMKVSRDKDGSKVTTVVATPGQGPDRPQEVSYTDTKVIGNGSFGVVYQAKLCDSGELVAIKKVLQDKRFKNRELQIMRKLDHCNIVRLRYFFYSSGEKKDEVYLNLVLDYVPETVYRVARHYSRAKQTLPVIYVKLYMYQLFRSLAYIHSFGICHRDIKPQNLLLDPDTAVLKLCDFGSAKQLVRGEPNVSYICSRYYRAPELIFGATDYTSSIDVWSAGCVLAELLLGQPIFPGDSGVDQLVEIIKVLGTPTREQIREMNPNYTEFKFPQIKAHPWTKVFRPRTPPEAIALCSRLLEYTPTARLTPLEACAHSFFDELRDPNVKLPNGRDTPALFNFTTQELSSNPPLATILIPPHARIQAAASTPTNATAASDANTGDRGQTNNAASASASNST
EPHA2, sequence (P29317 24-976): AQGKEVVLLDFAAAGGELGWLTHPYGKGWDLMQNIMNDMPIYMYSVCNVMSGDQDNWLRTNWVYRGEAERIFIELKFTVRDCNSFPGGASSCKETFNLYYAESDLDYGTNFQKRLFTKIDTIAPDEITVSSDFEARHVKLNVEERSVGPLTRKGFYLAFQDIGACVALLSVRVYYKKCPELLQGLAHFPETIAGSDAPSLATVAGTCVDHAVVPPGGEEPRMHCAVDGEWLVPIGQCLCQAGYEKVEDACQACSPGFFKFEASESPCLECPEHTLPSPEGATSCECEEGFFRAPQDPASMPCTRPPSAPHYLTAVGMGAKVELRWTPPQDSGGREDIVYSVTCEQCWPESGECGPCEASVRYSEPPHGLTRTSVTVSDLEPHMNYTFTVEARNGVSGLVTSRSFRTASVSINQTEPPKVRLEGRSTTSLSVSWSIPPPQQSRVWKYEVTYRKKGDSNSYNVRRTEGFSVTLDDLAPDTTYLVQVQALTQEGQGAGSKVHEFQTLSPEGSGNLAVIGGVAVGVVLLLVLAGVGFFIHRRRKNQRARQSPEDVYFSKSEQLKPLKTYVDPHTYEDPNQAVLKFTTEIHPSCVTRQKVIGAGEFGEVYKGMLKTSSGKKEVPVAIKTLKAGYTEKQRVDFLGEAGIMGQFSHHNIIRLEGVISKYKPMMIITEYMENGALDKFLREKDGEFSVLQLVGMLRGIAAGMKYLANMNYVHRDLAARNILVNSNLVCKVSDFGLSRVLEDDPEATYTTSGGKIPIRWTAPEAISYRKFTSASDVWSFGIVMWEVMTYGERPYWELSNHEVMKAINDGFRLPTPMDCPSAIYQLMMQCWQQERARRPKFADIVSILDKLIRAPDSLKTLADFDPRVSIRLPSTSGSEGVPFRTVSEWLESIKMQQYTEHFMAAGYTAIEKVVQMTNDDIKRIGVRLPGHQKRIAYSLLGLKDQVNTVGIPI
MAPK14 (p38 alpha), sequence (Q16539 whole entry): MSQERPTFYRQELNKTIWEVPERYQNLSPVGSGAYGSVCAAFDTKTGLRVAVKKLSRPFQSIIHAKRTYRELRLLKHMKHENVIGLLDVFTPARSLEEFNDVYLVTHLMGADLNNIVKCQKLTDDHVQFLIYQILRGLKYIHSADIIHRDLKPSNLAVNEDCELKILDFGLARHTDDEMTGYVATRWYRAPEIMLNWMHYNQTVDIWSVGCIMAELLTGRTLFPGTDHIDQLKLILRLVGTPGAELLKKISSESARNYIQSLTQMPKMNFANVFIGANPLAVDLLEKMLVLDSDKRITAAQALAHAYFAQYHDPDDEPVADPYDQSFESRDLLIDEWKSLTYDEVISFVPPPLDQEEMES
Wee-1 kinase, sequence (P30291 whole entry): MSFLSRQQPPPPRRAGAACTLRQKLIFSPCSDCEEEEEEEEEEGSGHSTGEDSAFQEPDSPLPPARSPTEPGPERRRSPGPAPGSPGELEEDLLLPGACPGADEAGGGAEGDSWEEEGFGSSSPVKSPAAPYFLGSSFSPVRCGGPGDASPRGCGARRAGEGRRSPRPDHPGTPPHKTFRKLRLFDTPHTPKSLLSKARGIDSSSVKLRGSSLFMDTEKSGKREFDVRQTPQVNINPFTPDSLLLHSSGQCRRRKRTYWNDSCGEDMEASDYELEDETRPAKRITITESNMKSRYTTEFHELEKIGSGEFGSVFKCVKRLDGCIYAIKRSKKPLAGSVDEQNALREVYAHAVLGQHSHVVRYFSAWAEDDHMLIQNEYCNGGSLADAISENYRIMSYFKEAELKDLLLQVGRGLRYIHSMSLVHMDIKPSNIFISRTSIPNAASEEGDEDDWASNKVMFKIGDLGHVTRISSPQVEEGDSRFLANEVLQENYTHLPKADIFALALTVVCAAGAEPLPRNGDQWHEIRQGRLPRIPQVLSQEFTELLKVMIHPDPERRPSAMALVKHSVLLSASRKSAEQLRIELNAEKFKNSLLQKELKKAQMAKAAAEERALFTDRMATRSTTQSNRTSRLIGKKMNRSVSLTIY
NEK1, sequence (Q96PY6 whole entry): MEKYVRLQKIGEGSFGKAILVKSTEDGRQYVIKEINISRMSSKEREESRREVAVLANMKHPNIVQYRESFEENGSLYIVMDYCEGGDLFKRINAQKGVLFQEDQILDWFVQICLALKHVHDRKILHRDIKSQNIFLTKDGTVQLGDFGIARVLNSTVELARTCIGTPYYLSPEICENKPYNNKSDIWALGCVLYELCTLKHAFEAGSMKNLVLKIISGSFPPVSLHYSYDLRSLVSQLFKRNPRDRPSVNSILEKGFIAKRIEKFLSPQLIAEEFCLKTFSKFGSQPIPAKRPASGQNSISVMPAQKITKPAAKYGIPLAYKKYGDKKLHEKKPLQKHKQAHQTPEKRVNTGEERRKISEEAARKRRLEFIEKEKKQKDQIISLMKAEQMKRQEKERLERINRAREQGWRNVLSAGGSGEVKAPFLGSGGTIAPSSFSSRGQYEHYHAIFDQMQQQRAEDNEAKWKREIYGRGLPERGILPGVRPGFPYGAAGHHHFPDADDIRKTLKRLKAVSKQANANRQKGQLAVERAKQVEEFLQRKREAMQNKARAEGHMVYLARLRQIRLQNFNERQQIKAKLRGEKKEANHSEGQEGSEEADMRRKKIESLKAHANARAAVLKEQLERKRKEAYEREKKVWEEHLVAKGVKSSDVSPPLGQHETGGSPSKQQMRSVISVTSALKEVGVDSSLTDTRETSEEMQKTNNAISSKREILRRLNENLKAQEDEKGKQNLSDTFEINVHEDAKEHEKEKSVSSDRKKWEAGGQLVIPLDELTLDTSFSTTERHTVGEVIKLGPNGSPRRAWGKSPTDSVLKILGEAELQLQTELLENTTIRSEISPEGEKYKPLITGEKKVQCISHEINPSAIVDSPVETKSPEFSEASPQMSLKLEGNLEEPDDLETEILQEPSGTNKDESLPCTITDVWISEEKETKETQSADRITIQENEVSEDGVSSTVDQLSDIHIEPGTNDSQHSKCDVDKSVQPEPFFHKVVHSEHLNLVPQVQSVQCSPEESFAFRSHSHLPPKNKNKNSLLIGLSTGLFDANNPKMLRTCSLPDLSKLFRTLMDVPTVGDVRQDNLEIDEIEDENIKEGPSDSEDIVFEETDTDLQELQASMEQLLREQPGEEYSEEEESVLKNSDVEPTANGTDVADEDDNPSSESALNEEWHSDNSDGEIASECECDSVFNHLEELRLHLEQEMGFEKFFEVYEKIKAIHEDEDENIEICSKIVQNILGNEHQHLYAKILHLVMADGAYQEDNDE
FGFR1, sequence (P11362 22-822): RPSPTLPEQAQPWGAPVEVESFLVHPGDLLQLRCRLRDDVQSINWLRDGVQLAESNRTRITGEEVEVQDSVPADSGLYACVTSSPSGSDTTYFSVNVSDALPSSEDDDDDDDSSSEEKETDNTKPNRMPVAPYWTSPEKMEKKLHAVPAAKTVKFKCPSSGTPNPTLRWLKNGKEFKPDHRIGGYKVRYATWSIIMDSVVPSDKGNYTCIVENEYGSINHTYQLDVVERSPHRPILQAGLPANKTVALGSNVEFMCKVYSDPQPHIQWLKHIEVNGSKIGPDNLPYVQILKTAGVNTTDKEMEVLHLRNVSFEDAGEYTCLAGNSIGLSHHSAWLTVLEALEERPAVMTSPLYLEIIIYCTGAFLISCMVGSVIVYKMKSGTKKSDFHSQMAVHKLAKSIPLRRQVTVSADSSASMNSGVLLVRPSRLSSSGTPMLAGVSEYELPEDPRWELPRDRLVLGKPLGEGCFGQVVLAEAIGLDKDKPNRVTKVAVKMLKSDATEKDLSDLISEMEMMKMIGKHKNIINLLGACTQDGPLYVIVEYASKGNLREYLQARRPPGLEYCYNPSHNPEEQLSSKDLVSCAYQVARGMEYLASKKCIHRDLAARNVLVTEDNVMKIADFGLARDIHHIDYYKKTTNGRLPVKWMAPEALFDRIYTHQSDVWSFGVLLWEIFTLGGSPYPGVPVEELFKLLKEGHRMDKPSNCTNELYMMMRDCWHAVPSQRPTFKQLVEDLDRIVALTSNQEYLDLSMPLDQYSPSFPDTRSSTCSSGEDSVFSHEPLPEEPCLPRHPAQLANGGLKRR
PAK4, sequence (O96013 whole entry): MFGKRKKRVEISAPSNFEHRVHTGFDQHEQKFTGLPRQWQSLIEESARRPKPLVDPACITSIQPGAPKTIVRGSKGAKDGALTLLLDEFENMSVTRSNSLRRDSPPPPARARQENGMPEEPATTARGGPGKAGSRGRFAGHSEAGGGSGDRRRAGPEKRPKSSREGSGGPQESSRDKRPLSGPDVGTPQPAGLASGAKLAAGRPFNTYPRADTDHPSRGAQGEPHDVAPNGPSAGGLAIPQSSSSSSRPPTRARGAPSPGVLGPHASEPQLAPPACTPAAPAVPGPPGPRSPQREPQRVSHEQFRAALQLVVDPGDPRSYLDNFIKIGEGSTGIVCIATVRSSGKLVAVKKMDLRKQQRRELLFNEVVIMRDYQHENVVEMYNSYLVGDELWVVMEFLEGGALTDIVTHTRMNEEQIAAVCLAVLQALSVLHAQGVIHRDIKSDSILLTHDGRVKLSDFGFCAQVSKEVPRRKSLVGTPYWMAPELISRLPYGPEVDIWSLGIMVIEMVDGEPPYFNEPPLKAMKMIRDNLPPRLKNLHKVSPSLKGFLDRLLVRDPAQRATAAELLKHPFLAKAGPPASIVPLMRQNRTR

Structure (SMILES): O=c1c2cnc(Nc3ccc(N4CCNCC4)cc3)nc2ccn1-c1c(Cl)cccc1Cl [Example 1, 6-(2,6-Dichlorophenyl)-2-((4-(piperazin-1-yl)phenyl)amino)pyrido[4,3-d]pyrimidin-5(6H)-one]
- Inhibition NEK1 (NEK1): − (Inhibition <75% @ 300-350 nM)
- Inhibition KDR (VEGFR2) (KDR (VEGFR2)): − (Inhibition <75% @ 300-350 nM)
- Inhibition EPHA2 (EPHA2): − (Inhibition <75% @ 300-350 nM)
- Inhibition MAPK14 (p38 alpha) (MAPK14 (p38 alpha)): − (Inhibition <75% @ 300-350 nM)
- Inhibition ROCK1 (ROCK1): − (Inhibition <75% @ 300-350 nM)
- Inhibition SYK (SYK): − (Inhibition <75% @ 300-350 nM)
- Inhibition GSK3B (GSK3 beta) (GSK3B (GSK3 beta)): − (Inhibition <75% @ 300-350 nM)
- Inhibition CDK1/cyclin B (CDK1/cyclin B): − (Inhibition <75% @ 300-350 nM)
- Inhibition PRKCB1 (PKC beta I) (PRKCB1 (PKC beta I)): − (Inhibition <75% @ 300-350 nM)
- IC50 (Wee-1 kinase): 10 to 200 nM
- Inhibition PAK4 (PAK4): − (Inhibition <75% @ 300-350 nM)
- Inhibition JAK3 (JAK3): − (Inhibition <75% @ 300-350 nM)
- Inhibition FGFR1 (FGFR1): − (Inhibition <75% @ 300-350 nM)
- IC50 [1]: ≥ 1000 nM

Source: patent US9714244B2, “Substituted pyrido[4,3-d]pyrimidines as Wee-1 inhibitors” (ALMAC DISCOVERY LIMITED, priority 2013, dated 2017)
